A short description of this data set: Stability of solid of type-G fenolamine crystal form (influencing factor experiment). The class given is physicochemical. The note with it: open watch glass; 60° C., 40° C., and 25° C., relative humidity 90%±5%, illumination 4500 lx±500 lx; 10 days, sampled Days 0, 5, 10; powder X-ray diffraction and gas chromatography. Here is the method:
Type-G fenolamine crystal form samples were placed in open clean watch glasses, and kept under conditions of a high temperature of 60° C., a high temperature of 40° C., and 25° C., a relative humidity of 90%±5%, and illumination at 4500 lx±500 lx for 10 days, and samples were taken on Days 0, 5, and 10. Powder X-ray diffraction (with a resultant pattern consistent to that in FIG. 1) and gas chromatography means were used for analysis. […] All of the products from Example 1 were subjected to this test and achieved the same effect.

Each structure is given as a SMILES string.

Take `COc1ccc(OC)c(/C(=C\c2ccc(O)c(OC)c2)C(=O)NCCc2ccc(O)cc2)c1` [type-G fenolamine crystal form, trans-2-(2,5-dimethoxyphenyl)-3-(4-hydroxy-3-methoxyphenyl)-N-(4-hydroxyphenylethyl)-acrylamide]: the “stability of the crystal form under conditions of high temperature, high humidity and light illumination” value is reported as “stable”.
